Data as given in US20220017564A1, “MOGROSIDE COMPOUNDS AND USES THEREOF” (Firmenich SA, priority 2019, published 2022).

System: sweet taste
Test: Sensory testing by a group of about 5 panelists (sweetness, licorice taste, lingering aftertaste)
Type: in vivo
Details: for Lingering: panelists' rating of lingering aftertaste on a scale from 1 to 10; for Licorice / Sweet: panelists' rating on a scale from 1 to 10
Experimental: Sensory testing was conducted by a group of about 5 panelists. […] The panelists rated the sweetness, licorice taste, and lingering aftertaste of Isomogroside IVE in comparison to Mogroside V on a scale from 1 to 10.

| Compound | licorice taste and lingering aftertaste in comparison to Mogroside V (250 ppm, panelists' perception) | sweetness in comparison to Mogroside V (250 ppm, panelists' perception) | Lingering (250 ppm) | Licorice (250 ppm) | Sweet (250 ppm) | times sweeter than sucrose (tasted at 250 ppm in a water base) |
| --- | --- | --- | --- | --- | --- | --- |
| C[C@H](CC[C@@H](O[C@@H]1O[C@H](CO)[C@@H](O)[C@H](O)[C@H]1O[C@@H]1O[C@H](CO)[C@@H](O)[C@H](O)[C@H]1O)C(C)(C)O)[C@H]1CC[C@@]2(C)[C@@H]3CC=C4[C@@H](CC[C@H](O[C@@H]5O[C@H](CO)[C@@H](O[C@@H]6O[C@H](CO)[C@@H](O)[C@H](O)[C@H]6O)[C@H](O)[C@H]5O)C4(C)C)[C@]3(C)[C@H](O)C[C@]12C [Isomogroside IVE, (1S,4R,9beta,11alpha,24R)-1-{[4-O-(beta-D-glucopyranosyl)-beta-D-glucopyranosyl]oxy}-11,25-dihydroxy-9,10,14-trimethyl-4,9-cyclo-9,10-secocholest-5-en-24-yl 2-O-beta-D-glucopyranosyl-beta-D-glucopyranoside] | no statistically significant difference | somewhat sweeter than Mogroside V | 5.4 | 4.5 | 7.0 | 200-300 times |
| C[C@H](CC[C@@H](O[C@@H]1O[C@H](CO[C@@H]2O[C@H](CO)[C@@H](O)[C@H](O)[C@H]2O)[C@@H](O)[C@H](O)[C@H]1O[C@@H]1O[C@H](CO)[C@@H](O)[C@H](O)[C@H]1O)C(C)(C)O)[C@H]1CC[C@@]2(C)[C@@H]3CC=C4[C@@H](CC[C@H](O[C@@H]5O[C@H](CO[C@@H]6O[C@H](CO)[C@@H](O)[C@H](O)[C@H]6O)[C@@H](O)[C@H](O)[C@H]5O)C4(C)C)[C@]3(C)[C@H](O)C[C@]12C [Mogroside V, reference compound] | – | – | 4.6 | 3.7 | 5.1 | – |
